# Results from PubChem BioAssay AID1259407 (Chemical Carcinogenesis Research Information System (CCRIS), 2018).
# Calls of active or inactive are those of the source. No rule for the calls is given here.
# Tested on: CCRIS mutagenicity, Ames/micronucleus/aberration tests
# Experiment: CCRIS mutagenicity studies
# [1] = Test System: AMES SALMONELLA TYPHIMURIUM, Strain/Indicator: TA98, Metabolic Activation: NONE, Method: PREINCUBATION
# [2] = Test System: AMES SALMONELLA TYPHIMURIUM, Strain/Indicator: TA98, Metabolic Activation: RAT LIVER S-9, PHENOBARBITAL AND BETA-NAPHTHOFLAVONE, Method: PREINCUBATION
# [3] = Test System: AMES SALMONELLA TYPHIMURIUM, Strain/Indicator: TA100, Metabolic Activation: NONE, Method: PREINCUBATION
# [4] = Test System: AMES SALMONELLA TYPHIMURIUM, Strain/Indicator: TA100, Metabolic Activation: RAT LIVER S-9, PHENOBARBITAL AND BETA-NAPHTHOFLAVONE, Method: PREINCUBATION
# [5] = Test System: AMES SALMONELLA TYPHIMURIUM, Strain/Indicator: TA1535, Metabolic Activation: NONE, Method: PREINCUBATION
# [6] = Test System: AMES SALMONELLA TYPHIMURIUM, Strain/Indicator: TA1535, Metabolic Activation: RAT LIVER S-9, PHENOBARBITAL AND BETA-NAPHTHOFLAVONE, Method: PREINCUBATION
# [7] = Test System: AMES SALMONELLA TYPHIMURIUM, Strain/Indicator: TA1537, Metabolic Activation: NONE, Method: PREINCUBATION
# [8] = Test System: AMES SALMONELLA TYPHIMURIUM, Strain/Indicator: TA1537, Metabolic Activation: RAT LIVER S-9, PHENOBARBITAL AND BETA-NAPHTHOFLAVONE, Method: PREINCUBATION
# [9] = Test System: E.COLI, Strain/Indicator: WP2UVRA/PKM101, Metabolic Activation: NONE, Method: PREINCUBATION
# [10] = Test System: E.COLI, Strain/Indicator: WP2UVRA/PKM101, Metabolic Activation: RAT LIVER S-9, PHENOBARBITAL AND BETA-NAPHTHOFLAVONE, Method: PREINCUBATION
smiles,measurement,setting,value
c1c[nH]cn1,mutagenic call,"Test System: AMES SALMONELLA TYPHIMURIUM, Strain/Indicator: TA97, Metabolic Activation: NONE, Method: STANDARD PLATE",inactive; negative
same,mutagenic call,"Test System: AMES SALMONELLA TYPHIMURIUM, Strain/Indicator: TA97, Metabolic Activation: RAT, LIVER, S-9, PHENOBARBITAL AND BETA-NAPHTHOFLAVONE, Method: STANDARD PLATE",inactive; negative
same,mutagenic call,"Test System: AMES SALMONELLA TYPHIMURIUM, Strain/Indicator: TA98, Metabolic Activation: NONE, Method: STANDARD PLATE",inactive; negative
same,mutagenic call,"Test System: AMES SALMONELLA TYPHIMURIUM, Strain/Indicator: TA98, Metabolic Activation: RAT, LIVER, S-9, PHENOBARBITAL AND BETA-NAPHTHOFLAVONE, Method: STANDARD PLATE",inactive; negative
same,mutagenic call,"Test System: AMES SALMONELLA TYPHIMURIUM, Strain/Indicator: TA100, Metabolic Activation: NONE, Method: STANDARD PLATE",inactive; negative
same,mutagenic call,"Test System: AMES SALMONELLA TYPHIMURIUM, Strain/Indicator: TA100, Metabolic Activation: RAT, LIVER, S-9, PHENOBARBITAL AND BETA-NAPHTHOFLAVONE, Method: STANDARD PLATE",inactive; negative
same,mutagenic call,"Test System: AMES SALMONELLA TYPHIMURIUM, Strain/Indicator: TA102, Metabolic Activation: NONE, Method: STANDARD PLATE",inactive; negative
same,mutagenic call,"Test System: AMES SALMONELLA TYPHIMURIUM, Strain/Indicator: TA102, Metabolic Activation: RAT, LIVER, S-9, PHENOBARBITAL AND BETA-NAPHTHOFLAVONE, Method: STANDARD PLATE",inactive; negative
same,mutagenic call,"Test System: UDS RAT HEPATOCYTES, Strain/Indicator: THY INCORP, Metabolic Activation: NONE, Method: AUTORADIOGRAPHY",inactive; negative
CCCCCCCCCCCCCO,mutagenic call,[1],inactive; negative
same,mutagenic call,[2],inactive; negative
same,mutagenic call,[3],inactive; negative
same,mutagenic call,[4],inactive; negative
same,mutagenic call,[5],inactive; negative
same,mutagenic call,[6],inactive; negative
same,mutagenic call,[7],inactive; negative
same,mutagenic call,[8],inactive; negative
same,mutagenic call,[9],inactive; negative
same,mutagenic call,[10],inactive; negative
Cc1cccc(C)c1[N+](=O)[O-],mutagenic call,[1],inactive; negative
same,mutagenic call,"Test System: AMES SALMONELLA TYPHIMURIUM, Strain/Indicator: TA98, Metabolic Activation: RAT, LIVER, S-9, KANECHLOR 500, Method: PREINCUBATION",inactive; negative
same,mutagenic call,[3],inactive; negative
same,mutagenic call,"Test System: AMES SALMONELLA TYPHIMURIUM, Strain/Indicator: TA100, Metabolic Activation: RAT, LIVER, S-9, KANECHLOR 500, Method: PREINCUBATION",inactive; negative
CCCCCCc1ccc(-c2ccc(C#N)cc2)cc1,mutagenic call,"Test System: AMES SALMONELLA TYPHIMURIUM, Strain/Indicator: TA97, Metabolic Activation: HAMSTER, LIVER, S-9, AROCLOR 1254 (10 OR 30%), Method: PREINCUBATION",inactive; negative
same,mutagenic call,"Test System: AMES SALMONELLA TYPHIMURIUM, Strain/Indicator: TA97, Metabolic Activation: NONE, Method: PREINCUBATION",inactive; negative
same,mutagenic call,"Test System: AMES SALMONELLA TYPHIMURIUM, Strain/Indicator: TA97, Metabolic Activation: RAT, LIVER, S-9, AROCLOR 1254 (10 OR 30%), Method: PREINCUBATION",inactive; negative
same,mutagenic call,"Test System: AMES SALMONELLA TYPHIMURIUM, Strain/Indicator: TA98, Metabolic Activation: HAMSTER, LIVER, S-9, AROCLOR 1254 (10 OR 30%), Method: PREINCUBATION",inactive; negative
same,mutagenic call,[1],inactive; negative
same,mutagenic call,"Test System: AMES SALMONELLA TYPHIMURIUM, Strain/Indicator: TA98, Metabolic Activation: RAT, LIVER, S-9, AROCLOR 1254 (10 OR 30%), Method: PREINCUBATION",inactive; negative
same,mutagenic call,"Test System: AMES SALMONELLA TYPHIMURIUM, Strain/Indicator: TA100, Metabolic Activation: HAMSTER, LIVER, S-9, AROCLOR 1254 (10 OR 30%), Method: PREINCUBATION",inactive; negative
same,mutagenic call,[3],inactive; negative
same,mutagenic call,"Test System: AMES SALMONELLA TYPHIMURIUM, Strain/Indicator: TA100, Metabolic Activation: RAT, LIVER, S-9, AROCLOR 1254 (10 OR 30%), Method: PREINCUBATION",inactive; negative
same,mutagenic call,"Test System: AMES SALMONELLA TYPHIMURIUM, Strain/Indicator: TA1535, Metabolic Activation: HAMSTER, LIVER, S-9, AROCLOR 1254 (10 OR 30%), Method: PREINCUBATION",inactive; negative
same,mutagenic call,[5],inactive; negative
same,mutagenic call,"Test System: AMES SALMONELLA TYPHIMURIUM, Strain/Indicator: TA1535, Metabolic Activation: RAT, LIVER, S-9, AROCLOR 1254 (10 OR 30%), Method: PREINCUBATION",inactive; negative
same,mutagenic call,"Test System: AMES SALMONELLA TYPHIMURIUM, Strain/Indicator: TA1537, Metabolic Activation: HAMSTER, LIVER, S-9, AROCLOR 1254 (10 OR 30%), Method: PREINCUBATION",inactive; negative
same,mutagenic call,[7],inactive; negative
same,mutagenic call,"Test System: AMES SALMONELLA TYPHIMURIUM, Strain/Indicator: TA1537, Metabolic Activation: RAT, LIVER, S-9, AROCLOR 1254 (10 OR 30%), Method: PREINCUBATION",inactive; negative
COC(=O)CC(C)=O,mutagenic call,"End Point: In vitro chromosomal aberrations, Test System: Chinese hamster lung (CHL/IU) cells, Metabolic Activation: None",inactive; negative
same,mutagenic call,"End Point: In vitro chromosomal aberrations, Test System: Chinese hamster lung (CHL/IU) cells, Metabolic Activation: Rat, Liver, S9, Phenobarbital and 5,6-benzoflavone",active; positive (ploidy)
same,mutagenic call,[1],inactive; negative
same,mutagenic call,[2],inactive; negative
same,mutagenic call,"Test System: AMES SALMONELLA TYPHIMURIUM, Strain/Indicator: TA98, Metabolic Activation: RAT, LIVER, S-9, KC 500, Method: PREINCUBATION",inactive; negative
same,mutagenic call,[3],inactive; negative
same,mutagenic call,[4],inactive; negative
same,mutagenic call,"Test System: AMES SALMONELLA TYPHIMURIUM, Strain/Indicator: TA100, Metabolic Activation: RAT, LIVER, S-9, KC 500, Method: PREINCUBATION",inactive; negative
same,mutagenic call,[5],inactive; negative
same,mutagenic call,[6],inactive; negative
same,mutagenic call,"Test System: AMES SALMONELLA TYPHIMURIUM, Strain/Indicator: TA1535, Metabolic Activation: RAT, LIVER, S-9, KC 500, Method: PREINCUBATION",inactive; negative
same,mutagenic call,[7],inactive; negative
same,mutagenic call,[8],inactive; negative
same,mutagenic call,"Test System: AMES SALMONELLA TYPHIMURIUM, Strain/Indicator: TA1537, Metabolic Activation: RAT, LIVER, S-9, KC 500, Method: PREINCUBATION",inactive; negative
same,mutagenic call,"Test System: AMES SALMONELLA TYPHIMURIUM, Strain/Indicator: TA1538, Metabolic Activation: NONE, Method: PREINCUBATION",inactive; negative
same,mutagenic call,"Test System: AMES SALMONELLA TYPHIMURIUM, Strain/Indicator: TA1538, Metabolic Activation: RAT, LIVER, S-9, KC 500, Method: PREINCUBATION",inactive; negative
same,mutagenic call,"Test System: E. COLI, Strain/Indicator: WP2 UVRA, Metabolic Activation: NONE, Method: PREINCUBATION",inactive; negative
same,mutagenic call,"Test System: E. COLI, Strain/Indicator: WP2 UVRA, Metabolic Activation: RAT, LIVER, S-9, KC 500, Method: PREINCUBATION",inactive; negative
same,mutagenic call,[9],inactive; negative
same,mutagenic call,[10],inactive; negative
